{"source": "patent US20110028566A1", "about": "“COMPOSITIONS AND PRODUCTS CONTAINING CYCLOALIPHATIC DIOL ANTIMICROBIAL AGENTS AND METHODS OF USING THE COMPOSITIONS AND PRODUCTS” (EASTMAN CHEMICAL COMPANY, priority 2009, published 2011)", "assay_type_in_all_cases": "cell-based", "key": {"Staphylococcus aureus": {"system": "Staphylococcus aureus", "assay": "Microbial challenge testing in BPW", "conditions": "for Grade code, S. aureus, 3 Day / Grade code, S. aureus, 14 Day / Grade code, S. aureus, 30 Day: BPW, w/v % in label, average of replicates", "outline": "(§1)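 Bacteria, including ATCC and wild-type isolates from chemical products, were grown in tryptose soy broth with 1% dextrose for at least 96 hours. Inoculum was sized by plate count and turbidity (NTU) and added to test-material substrates to give 10^5 to 10^6 cfu/mL initially. Incubation ran 14 days at 35° C., then at room temperature.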"}, "Streptococcus mutans": {"system": "Streptococcus mutans", "assay": "Microbial challenge testing in BPW", "conditions": "for Grade code, S. mutans, 3 Day / Grade code, S. mutans, 13 Day / Grade code, S. mutans, 30 Days: BPW, w/v % in label, average of replicates", "outline": "as §1"}, "Malassezia furfur": {"system": "Malassezia furfur", "assay": "Challenge testing with pathogenic fungi in SDB", "conditions": "SDB with olive oil and Tween 80, w/v % in label, pellicle formation; for Grade code, Pathogenic Fungi, M. furfur, 3 Days: 3 days incubation; for Grade code, Pathogenic Fungi, M. furfur, 14 Days: 14 days incubation; for Grade code, Pathogenic Fungi, M. furfur, 30 Days: 30 days incubation", "method": "(§2) Both M. canis and Trichophyton rubrum were grown on Sabouraud dextrose broth (SDB) (pH 5.6), while Malassezia fufur was grown in SDB supplemented with 2% (v/v) of olive oil and 0.2% (v/v) of Tween™ 80; incubation was at 22° C.±2° C. under continuous agitation by stirring for 10 days. The organisms were grown to a cell concentration of between 10^3 and 10^4 cfu/mL. The actual inoculation cell concentration of these challenges was determined by diluting in sterile buffer water and (spread-plate method) plating for enumeration.\n(§3) Challenge organisms were used to inoculate tubes containing each test material (CHDM, etc) or combination of test materials, at concentrations given in Table 5, in SDB (or for M. furfur, in SDB supplemented with olive oil and Tween™ 80). The inoculations were in the amount of 1.5 mL aliquots of each culture with static incubation at 22±2° C. Subcultures were made after 3-, 14-, and 30-days incubation. All challenges were conducted in triplicate. In the case of M. canis, the growth response was assessed by the visual presence or absence of growth in the tubes; in the case of T. rubrum, a respiratory dye (0.2% w/v aqueous INT solution: 2-(4-iodophenyl)-3-(4-nitrophenyl)-5-phenyl tetrazolium chloride) was added to the tubes, turning red if the organism was viable; and, finally, in the case of M. furfur, the growth response was assessed based upon visible pellicle formation in the tubes at the meniscus. The fungal growth in each tube was assigned a grade code as follows:\n(§4) 0: No visible growth 1: Some growth in tube 2: Moderate growth in tube 3: Good growth in tube 4: Extreme growth in tube\n(§5) All test material concentrations are given as w/v %. The grade codes given are the average of the grade codes for duplicate or triplicate samples.\n(§6) Table 5 compares the antimicrobial activity of 1,4-CHDM (AB) alone to 1,4-CHDM in combination with EDTA, phenoxyethanol (PE), and caprylyl glycol (CG). CHDM at 0.5% was tested with EDTA, and at 1.25 and 2.5% with EDTA, PE, and CG. (Note that the combination of CHDM with only EDTA was not tested against pathogenic fungi.) Results are also given for EDTA, PE, and CG alone, so the result for each mixture can be compared to the antimicrobial activity for each of its components individually. […] Possible synergies were determined by treating the grade code as an estimate of the log of the microbial count (log of cfu/mL). Log reductions can then be estimated by subtracting each grade code from the grade code for broth alone (grade code 5, except for the pathogenic fungi)."}, "Microsporum canis": {"system": "Microsporum canis", "assay": "Challenge testing with pathogenic fungi in SDB", "conditions": "w/v % in label, visual growth in tubes; for Grade code, Pathogenic Fungi, M. canis, 3 Days: 3 days incubation; for Grade code, Pathogenic Fungi, M. canis, 14 Days: 14 days incubation; for Grade code, Pathogenic Fungi, M. canis, 30 Days: 30 days incubation", "method": "as §2, §3, §4, §5, §6"}}, "data": [{"smiles": "CCCCCCC(O)CO", "note": "(stereo not drawn) [CG, 1,2-octanediol]", "values": [{"measurement": "Grade code, S. aureus, 3 Day", "setting": "Staphylococcus aureus; 3 days incubation, listed as 0.25% CG", "value": "4 (1001 to 10,000 colonies (thus 10,000 cfu/mL to 100,000 cfu/mL))"}, {"measurement": "Grade code, S. aureus, 3 Day", "setting": "Staphylococcus aureus; 3 days incubation, listed as 0.5% CG", "value": "3 (101 to 1000 colonies (thus 1000 to 10,000 cfu/mL))"}, {"measurement": "Grade code, S. aureus, 14 Day", "setting": "Staphylococcus aureus; 14 days incubation, listed as 0.25% CG", "value": "2 (52 to 100 colonies counted (thus 520 to 1000 cfu/mL))"}, {"measurement": "Grade code, S. aureus, 14 Day", "setting": "Staphylococcus aureus; 14 days incubation, listed as 0.5% CG", "value": "0 (No growth detected or <1 colony (thus <10 cfu/mL))"}, {"measurement": "Grade code, S. aureus, 30 Day", "setting": "Staphylococcus aureus; 30 days incubation, listed as 0.25% CG", "value": "2 (52 to 100 colonies counted (thus 520 to 1000 cfu/mL))"}, {"measurement": "Grade code, S. aureus, 30 Day", "setting": "Staphylococcus aureus; 30 days incubation, listed as 0.5% CG", "value": "0 (No growth detected or <1 colony (thus <10 cfu/mL))"}, {"measurement": "Grade code, S. mutans, 3 Day", "setting": "Streptococcus mutans; 3 days incubation", "value": "0 (No growth detected or <1 colony (thus <10 cfu/mL))"}, {"measurement": "Grade code, S. mutans, 13 Day", "setting": "Streptococcus mutans; 13 days incubation", "value": "0 (No growth detected or <1 colony (thus <10 cfu/mL))"}, {"measurement": "Grade code, S. mutans, 30 Days", "setting": "Streptococcus mutans; 30 days incubation", "value": "0 (No growth detected or <1 colony (thus <10 cfu/mL))"}, {"measurement": "Grade code, Pathogenic Fungi, M. furfur, 3 Days", "setting": "Malassezia furfur", "value": 0}, {"measurement": "Grade code, Pathogenic Fungi, M. furfur, 14 Days", "setting": "Malassezia furfur", "value": 0}, {"measurement": "Grade code, Pathogenic Fungi, M. furfur, 30 Days", "setting": "Malassezia furfur", "value": 0}, {"measurement": "Grade code, Pathogenic Fungi, M. canis, 3 Days", "setting": "Microsporum canis", "value": 0}, {"measurement": "Grade code, Pathogenic Fungi, M. canis, 14 Days", "setting": "Microsporum canis", "value": 0}, {"measurement": "Grade code, Pathogenic Fungi, M. canis, 30 Days", "setting": "Microsporum canis", "value": 0}]}, {"smiles": "O=C([O-])CN(CCN(CC(=O)O)CC(=O)O)CC(=O)[O-].[Na+].[Na+]", "note": "[EDTA, ethylenediaminetetraacetic acid disodium salt]", "values": [{"measurement": "Grade code, S. aureus, 3 Day", "setting": "Staphylococcus aureus; 3 days incubation", "value": "5 (More than 10,000 colonies estimated (thus >100,000 cfu/mL))"}, {"measurement": "Grade code, S. aureus, 14 Day", "setting": "Staphylococcus aureus; 14 days incubation", "value": "4 (1001 to 10,000 colonies (thus 10,000 cfu/mL to 100,000 cfu/mL))"}, {"measurement": "Grade code, S. aureus, 30 Day", "setting": "Staphylococcus aureus; 30 days incubation", "value": "4 (1001 to 10,000 colonies (thus 10,000 cfu/mL to 100,000 cfu/mL))"}, {"measurement": "Grade code, S. mutans, 3 Day", "setting": "Streptococcus mutans; 3 days incubation", "value": "4 (1001 to 10,000 colonies (thus 10,000 cfu/mL to 100,000 cfu/mL))"}, {"measurement": "Grade code, S. mutans, 13 Day", "setting": "Streptococcus mutans; 13 days incubation", "value": "4 (1001 to 10,000 colonies (thus 10,000 cfu/mL to 100,000 cfu/mL))"}, {"measurement": "Grade code, S. mutans, 30 Days", "setting": "Streptococcus mutans; 30 days incubation", "value": "4 (1001 to 10,000 colonies (thus 10,000 cfu/mL to 100,000 cfu/mL))"}, {"measurement": "Grade code, Pathogenic Fungi, M. furfur, 3 Days", "setting": "Malassezia furfur", "value": 0}, {"measurement": "Grade code, Pathogenic Fungi, M. furfur, 14 Days", "setting": "Malassezia furfur", "value": 0}, {"measurement": "Grade code, Pathogenic Fungi, M. furfur, 30 Days", "setting": "Malassezia furfur", "value": 0}, {"measurement": "Grade code, Pathogenic Fungi, M. canis, 3 Days", "setting": "Microsporum canis", "value": 2}, {"measurement": "Grade code, Pathogenic Fungi, M. canis, 14 Days", "setting": "Microsporum canis", "value": 1}, {"measurement": "Grade code, Pathogenic Fungi, M. canis, 30 Days", "setting": "Microsporum canis", "value": 0}]}, {"smiles": "CC1(C)C(O)C(C)(C)C1O", "note": "(stereo not drawn) [TMCD, 2,2,4,4-tetramethyl-1,3-cyclobutanediol]", "values": [{"measurement": "Grade code S. aureus", "setting": "Staphylococcus aureus; 0.5%, 3 days incubation", "value": "4 (1001 to 10,000 colonies (thus 10,000 cfu/mL to 100,000 cfu/mL))"}, {"measurement": "Grade code S. aureus", "setting": "Staphylococcus aureus; 0.5%, 14 days incubation", "value": "4 (1001 to 10,000 colonies (thus 10,000 cfu/mL to 100,000 cfu/mL))"}, {"measurement": "Grade code S. aureus", "setting": "Staphylococcus aureus; 0.5%, 30 days incubation", "value": "4 (1001 to 10,000 colonies (thus 10,000 cfu/mL to 100,000 cfu/mL))"}, {"measurement": "Grade code S. aureus", "setting": "Staphylococcus aureus; 1.25%, 3 days incubation", "value": "4 (1001 to 10,000 colonies (thus 10,000 cfu/mL to 100,000 cfu/mL))"}, {"measurement": "Grade code S. aureus", "setting": "Staphylococcus aureus; 1.25%, 14 days incubation", "value": "4 (1001 to 10,000 colonies (thus 10,000 cfu/mL to 100,000 cfu/mL))"}, {"measurement": "Grade code S. aureus", "setting": "Staphylococcus aureus; 1.25%, 30 days incubation", "value": "4 (1001 to 10,000 colonies (thus 10,000 cfu/mL to 100,000 cfu/mL))"}, {"measurement": "Grade code S. aureus", "setting": "Staphylococcus aureus; 2.5%, 3 days incubation", "value": "2 (52 to 100 colonies counted (thus 520 to 1000 cfu/mL))"}, {"measurement": "Grade code S. aureus", "setting": "Staphylococcus aureus; 2.5%, 14 days incubation", "value": "1 (1 to 51 colonies counted (thus 10 to 510 cfu/mL))"}, {"measurement": "Grade code S. aureus", "setting": "Staphylococcus aureus; 2.5%, 30 days incubation", "value": "1 (1 to 51 colonies counted (thus 10 to 510 cfu/mL))"}, {"measurement": "Grade code S. mutans", "setting": "Streptococcus mutans; 0.5%, 3 days incubation", "value": "4 (1001 to 10,000 colonies (thus 10,000 cfu/mL to 100,000 cfu/mL))"}, {"measurement": "Grade code S. mutans", "setting": "Streptococcus mutans; 0.5%, 13 days incubation", "value": "4 (1001 to 10,000 colonies (thus 10,000 cfu/mL to 100,000 cfu/mL))"}, {"measurement": "Grade code S. mutans", "setting": "Streptococcus mutans; 0.5%, 30 days incubation", "value": "4 (1001 to 10,000 colonies (thus 10,000 cfu/mL to 100,000 cfu/mL))"}, {"measurement": "Grade code S. mutans", "setting": "Streptococcus mutans; 1.25%, 3 days incubation", "value": "4 (1001 to 10,000 colonies (thus 10,000 cfu/mL to 100,000 cfu/mL))"}, {"measurement": "Grade code S. mutans", "setting": "Streptococcus mutans; 1.25%, 13 days incubation", "value": "4 (1001 to 10,000 colonies (thus 10,000 cfu/mL to 100,000 cfu/mL))"}, {"measurement": "Grade code S. mutans", "setting": "Streptococcus mutans; 1.25%, 30 days incubation", "value": "4 (1001 to 10,000 colonies (thus 10,000 cfu/mL to 100,000 cfu/mL))"}, {"measurement": "Grade code S. mutans", "setting": "Streptococcus mutans; 2.5%, 3 days incubation", "value": "3 (101 to 1000 colonies (thus 1000 to 10,000 cfu/mL))"}, {"measurement": "Grade code S. mutans", "setting": "Streptococcus mutans; 2.5%, 13 days incubation", "value": "1 (1 to 51 colonies counted (thus 10 to 510 cfu/mL))"}, {"measurement": "Grade code S. mutans", "setting": "Streptococcus mutans; 2.5%, 30 days incubation", "value": "0 (No growth detected or <1 colony (thus <10 cfu/mL))"}]}]}
